Laboratory results from ChEMBL document CHEMBL1201862, “PubChem BioAssay data set” (2004).
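Grown in 96-well plates, cells were treated for 48 hours with each compound at five concentrations. Insufficient inhibition: endpoint recorded as highest concentration tested. At the GI50, growth is halved.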 Active and inactive are the calls of the source. Rule as the data show it: active = GI50 up to about 1.1 µM and inactive = higher.

Columns and labels:
Assay in all cases: DTP human tumour cell line panel, 48 h
A498 = system: A498
COLO 205 = system: COLO 205
DU-145 = system: DU-145
HOP-62 = system: HOP-62
HOP-92 = system: HOP-92
HT-29 = system: HT-29
KM12 = system: KM12
MCF7 = system: MCF7
MDA-MB-231 = system: MDA-MB-231
MOLT-4 = system: MOLT-4
Malme-3M = system: Malme-3M
NCI-H522 = system: NCI-H522
PC-3 = system: PC-3
RXF 393 = system: RXF 393
SF-295 = system: SF-295
SK-OV-3 = system: SK-OV-3
U-251 = system: U-251
HCC 2998 = system: HCC 2998
SK-MEL-5 = system: SK-MEL-5
UO-31 = system: UO-31

**Q.** For `C[C@]12C[C@H](O)[C@H]3[C@@H](CCC4=CC(=O)CC[C@@]43C)[C@@H]1CC[C@@H]2c1csc(-c2ccccc2)n1`, which GI50 (A498) is on record?
**A.** The GI50 was > 39 µM (inactive).

**Q.** What about the GI50 (COLO 205) of the same compound?
**A.** Its GI50 is > 28 µM (inactive).

**Q.** And the GI50 (DU-145)?
**A.** The GI50 was > 51.6 µM (inactive).

**Q.** What about the GI50 (HOP-62) of the same compound?
**A.** Its GI50 is 9.53 µM (inactive).

**Q.** And the GI50 (HOP-92)?
**A.** The GI50 was 27.8 µM (inactive).

**Q.** And the GI50 (HT-29)?
**A.** The GI50 was > 30.3 µM (inactive).

**Q.** What about the GI50 (KM12) of the same compound?
**A.** Its GI50 is > 46.7 µM (inactive).

**Q.** What about the GI50 (MCF7) of the same compound?
**A.** Its GI50 is > 23 µM (inactive).

**Q.** What about the GI50 (MDA-MB-231) of the same compound?
**A.** The GI50 was 20.1 µM (inactive).

**Q.** What about the GI50 (MOLT-4) of the same compound?
**A.** The GI50 was 0.625 µM (active).

**Q.** What about the GI50 (Malme-3M) of the same compound?
**A.** Its GI50 is > 44.2 µM (inactive).

**Q.** And the GI50 (NCI-H522)?
**A.** Its GI50 is 4.16 µM (inactive).

**Q.** And the GI50 (PC-3)?
**A.** Its GI50 is 3.32 µM (inactive).

**Q.** What about the GI50 (RXF 393) of the same compound?
**A.** Its GI50 is 72.4 µM (inactive).

**Q.** What about the GI50 (SF-295) of the same compound?
**A.** Its GI50 is > 100 µM (inactive).

**Q.** What about the GI50 (SK-OV-3) of the same compound?
**A.** Its GI50 is 27.5 µM (inactive).

**Q.** What about the GI50 (U-251) of the same compound?
**A.** The GI50 was 24.9 µM (inactive).

**Q.** `C=C(C)C[C@H](Sc1nc2ccccc2s1)[C@H](C)O` was tested. Which GI50 (A498) did it give?
**A.** The GI50 was 27.2 µM (inactive).

**Q.** And the GI50 (COLO 205)?
**A.** The GI50 was 35.5 µM (inactive).

**Q.** What about the GI50 (DU-145) of the same compound?
**A.** The GI50 was 88.1 µM (inactive).

**Q.** And the GI50 (HCC 2998)?
**A.** Its GI50 is 59.2 µM (inactive).

**Q.** What about the GI50 (HOP-62) of the same compound?
**A.** The GI50 was > 100 µM (inactive).

**Q.** What about the GI50 (HOP-92) of the same compound?
**A.** The GI50 was 24.6 µM (inactive).

**Q.** And the GI50 (HT-29)?
**A.** Its GI50 is 31.1 µM (inactive).

**Q.** What about the GI50 (KM12) of the same compound?
**A.** Its GI50 is 41.2 µM (inactive).

**Q.** And the GI50 (MCF7)?
**A.** The GI50 was 38.3 µM (inactive).

**Q.** And the GI50 (MDA-MB-231)?
**A.** Its GI50 is 73.6 µM (inactive).

**Q.** And the GI50 (MOLT-4)?
**A.** The GI50 was 16.4 µM (inactive).

**Q.** What about the GI50 (Malme-3M) of the same compound?
**A.** The GI50 was 25.6 µM (inactive).

**Q.** What about the GI50 (NCI-H522) of the same compound?
**A.** The GI50 was 23.8 µM (inactive).

**Q.** And the GI50 (PC-3)?
**A.** Its GI50 is 22.6 µM (inactive).

**Q.** And the GI50 (RXF 393)?
**A.** The GI50 was 48.3 µM (inactive).

**Q.** And the GI50 (SF-295)?
**A.** Its GI50 is 39.5 µM (inactive).

**Q.** What about the GI50 (SK-MEL-5) of the same compound?
**A.** Its GI50 is 18.1 µM (inactive).

**Q.** And the GI50 (U-251)?
**A.** Its GI50 is 37.5 µM (inactive).

**Q.** What about the GI50 (UO-31) of the same compound?
**A.** The GI50 was 69 µM (inactive).

**Q.** How did the GI50 (A498) turn out when `CCCCCCc1ccc(C(=O)NO)cc1` was run?
**A.** The GI50 was 29.2 µM (inactive).

**Q.** What about the GI50 (COLO 205) of the same compound?
**A.** The GI50 was 41.5 µM (inactive).

**Q.** What about the GI50 (DU-145) of the same compound?
**A.** The GI50 was 24.8 µM (inactive).

**Q.** What about the GI50 (HCC 2998) of the same compound?
**A.** The GI50 was 65.2 µM (inactive).

**Q.** And the GI50 (HOP-62)?
**A.** Its GI50 is 34.2 µM (inactive).

**Q.** And the GI50 (HOP-92)?
**A.** The GI50 was 48 µM (inactive).

**Q.** What about the GI50 (HT-29) of the same compound?
**A.** Its GI50 is 36 µM (inactive).

**Q.** And the GI50 (KM12)?
**A.** The GI50 was 44.9 µM (inactive).

**Q.** And the GI50 (MCF7)?
**A.** Its GI50 is 59.3 µM (inactive).

**Q.** And the GI50 (MDA-MB-231)?
**A.** Its GI50 is 95.7 µM (inactive).

**Q.** And the GI50 (MOLT-4)?
**A.** The GI50 was 11.7 µM (inactive).

**Q.** What about the GI50 (NCI-H522) of the same compound?
**A.** The GI50 was 11.3 µM (inactive).

**Q.** And the GI50 (PC-3)?
**A.** Its GI50 is 31.8 µM (inactive).

**Q.** And the GI50 (RXF 393)?
**A.** Its GI50 is 41.2 µM (inactive).

**Q.** What about the GI50 (SF-295) of the same compound?
**A.** The GI50 was 40.6 µM (inactive).

**Q.** What about the GI50 (SK-MEL-5) of the same compound?
**A.** The GI50 was 47.1 µM (inactive).

**Q.** What about the GI50 (SK-OV-3) of the same compound?
**A.** Its GI50 is 40.2 µM (inactive).

**Q.** And the GI50 (U-251)?
**A.** Its GI50 is 38.8 µM (inactive).

**Q.** What about the GI50 (UO-31) of the same compound?
**A.** The GI50 was 15.7 µM (inactive).

**Q.** `O=C1OI(C#Cc2ccccc2)c2ccccc21` was tested. Which GI50 (A498) did it give?
**A.** The GI50 was 4.57 µM (inactive).

**Q.** What about the GI50 (COLO 205) of the same compound?
**A.** Its GI50 is 3.37 µM (inactive).

**Q.** What about the GI50 (DU-145) of the same compound?
**A.** Its GI50 is 7.18 µM (inactive).

**Q.** And the GI50 (HCC 2998)?
**A.** The GI50 was 6.58 µM (inactive).

**Q.** And the GI50 (HOP-62)?
**A.** Its GI50 is 6.41 µM (inactive).

**Q.** What about the GI50 (HOP-92) of the same compound?
**A.** The GI50 was 1.88 µM (inactive).

**Q.** What about the GI50 (HT-29) of the same compound?
**A.** The GI50 was 3.94 µM (inactive).

**Q.** And the GI50 (KM12)?
**A.** Its GI50 is 3.52 µM (inactive).

**Q.** And the GI50 (MCF7)?
**A.** Its GI50 is 3.69 µM (inactive).

**Q.** What about the GI50 (MDA-MB-231) of the same compound?
**A.** The GI50 was 6.1 µM (inactive).

**Q.** And the GI50 (MOLT-4)?
**A.** Its GI50 is 1.63 µM (inactive).

**Q.** What about the GI50 (Malme-3M) of the same compound?
**A.** Its GI50 is 1.53 µM (inactive).

**Q.** And the GI50 (PC-3)?
**A.** Its GI50 is 4.54 µM (inactive).

**Q.** What about the GI50 (RXF 393) of the same compound?
**A.** Its GI50 is 5.43 µM (inactive).

**Q.** What about the GI50 (SF-295) of the same compound?
**A.** Its GI50 is 13.5 µM (inactive).

**Q.** What about the GI50 (SK-MEL-5) of the same compound?
**A.** Its GI50 is 2.19 µM (inactive).

**Q.** And the GI50 (SK-OV-3)?
**A.** Its GI50 is 12.2 µM (inactive).

**Q.** What about the GI50 (U-251) of the same compound?
**A.** Its GI50 is 2.62 µM (inactive).

**Q.** What about the GI50 (UO-31) of the same compound?
**A.** The GI50 was 4.13 µM (inactive).

**Q.** `COC(=O)C1[C@H](C(=O)OC)C1(Br)CBr` (stereo partly drawn) was tested. Which GI50 (A498) did it give?
**A.** Its GI50 is > 100 µM (inactive).

**Q.** And the GI50 (COLO 205)?
**A.** The GI50 was > 100 µM (inactive).

**Q.** And the GI50 (DU-145)?
**A.** Its GI50 is > 100 µM (inactive).

**Q.** What about the GI50 (HCC 2998) of the same compound?
**A.** Its GI50 is > 100 µM (inactive).

**Q.** And the GI50 (HOP-62)?
**A.** Its GI50 is > 100 µM (inactive).

**Q.** What about the GI50 (HOP-92) of the same compound?
**A.** Its GI50 is > 100 µM (inactive).

**Q.** And the GI50 (HT-29)?
**A.** Its GI50 is > 100 µM (inactive).

**Q.** And the GI50 (KM12)?
**A.** Its GI50 is > 100 µM (inactive).

**Q.** What about the GI50 (MCF7) of the same compound?
**A.** Its GI50 is > 100 µM (inactive).

**Q.** And the GI50 (MDA-MB-231)?
**A.** The GI50 was > 100 µM (inactive).

**Q.** And the GI50 (MOLT-4)?
**A.** The GI50 was 40.1 µM (inactive).

**Q.** And the GI50 (NCI-H522)?
**A.** Its GI50 is 8.95 µM (inactive).

**Q.** And the GI50 (PC-3)?
**A.** The GI50 was > 100 µM (inactive).

**Q.** What about the GI50 (RXF 393) of the same compound?
**A.** The GI50 was > 100 µM (inactive).

**Q.** What about the GI50 (SF-295) of the same compound?
**A.** Its GI50 is > 100 µM (inactive).

**Q.** What about the GI50 (SK-MEL-5) of the same compound?
**A.** The GI50 was > 100 µM (inactive).

**Q.** What about the GI50 (SK-OV-3) of the same compound?
**A.** Its GI50 is > 100 µM (inactive).

**Q.** What about the GI50 (U-251) of the same compound?
**A.** The GI50 was > 100 µM (inactive).

**Q.** What about the GI50 (UO-31) of the same compound?
**A.** Its GI50 is > 100 µM (inactive).
